These results are taken from a melting point compilation (Tetko et al.).

Compound `CN1C2CCC1CC(OC(=O)C(O)c1ccccc1)C2` (stereo unspecified) had a melting point of 99.5 °C. The figure for `CCC(C)(O)C(C)(C)C` (stereo unspecified) is -6 °C. In turn, `CCC[N+](=O)[O-]` registered a melting point of -108 °C.

`CC(=O)c1ccc(-n2ccnc2)cc1` yielded a melting point of 116 °C. With `O=C(Oc1ccc(Cl)cc1Cl)c1ccc(C(=O)Oc2ccc(Cl)cc2Cl)cc1` the figure was 217 °C. In turn, `CCCCCCCCCCCC[N+]1=C(C=Cc2cc([N+](=O)[O-])cc([N+](=O)[O-])c2[O-])C(C)(C)c2ccccc21` returned a melting point of 138 °C. The figure for `Nc1cc(Cl)cc(C(=O)O)c1Cl` is 200 °C. The compound `CCN(CC)c1ccc(N)cc1` gave a melting point of 27 °C. With `Cn1c(=O)cc(O)c2ccccc21` the figure was 264 to 266 °C; with `Cc1cc(Br)c(N)c(Br)c1`, 74 °C. As to `Nc1cccc(-c2ccccc2)c1`, the melting point was determined as 33 °C.

Take `O=C1OC(=O)C2CCCCC12` (stereo unspecified): the melting point was found to be 32 °C.

`CC(C)(C)c1ccc(C(C)(C)C)cc1` yielded a melting point of 79.5 °C. `CC(=O)CCc1oc2ccc([N+](=O)[O-])cc2c1-c1ccc(C)o1` displayed a melting point of 124 °C. The figure for `CC(C)=C1OC(=O)C1(C)C` is -18 °C; for `CCOC(=O)C1(S(=O)(=O)c2ccc(C)cc2)CCC1` it is 53.5 °C. The figure for `Cc1nn(C(C)(C)C)c(C)c1C=O` is 56 to 61 °C; for `C=CC(=C)Cl` it is -130 °C. The figure for `Oc1ccc(Cl)cc1C1CCCCC1` is 59 to 60 °C; for `COc1ccc(-c2ccc(C=O)s2)cc1` it is 118 to 119 °C; for `CCOC(=O)c1nn(-c2ccc(C)cc2)c(C)c1C(=O)C1=NOC2C(=O)N(c3ccccc3C)C(=O)C12` (stereo unspecified) it is 200 °C. Take `COc1ccc(C(O)C(=O)O)cc1O` (racemic): the melting point was in the range of 125 to 132 °C. With `FC1(F)C(F)(F)C(F)(F)C1(F)F` the figure was -40.1 °C; with `O=C(O)c1nc2ccccc2nc1O`, 267 to 268 °C. With `OCc1cc(OCc2ccccc2)cc(OCc2ccccc2)c1` the figure was 78 to 82 °C; with `COc1ccc(/C=C2\CN(S(=O)(=O)c3ccc(C)cc3)c3ccccc3N2S(=O)(=O)c2ccc(C)cc2)cc1`, 152 °C. With `COC1=CC(C)C2CC3OC(=O)CC4C(C)=C(OC)C(=O)C(C2(C)C1=O)C34C` (stereo unspecified), the melting point stood at 222 °C.

With `CC(=O)c1ccc(-c2cccc([N+](=O)[O-])c2)cc1`, the melting point was 108 °C. With `N#Cc1cccnc1Sc1ccccc1` the figure was 105 to 107 °C. The figure for `O=c1c2ccccc2cc2ccc3ccccc3n12` is 125 °C; for `CC(C)(C)NC(N)=O` it is 178 to 182 °C; for `C[Si](C)(c1ccccc1)[Si](C)(C)c1ccccc1` it is 33 to 38 °C. With `CCOC(=O)C=C1SC(N2CCCCC2)C(=O)N1C` (stereo unspecified) the figure was 140 °C; with `NC(=O)c1cccc(C(=O)O)c1`, 280 °C; with `Cc1cnc(C(=O)O)c[n+]1[O-]`, 178 °C. In turn, `CC(C)n1c(C(F)(F)F)nc2cc(C(=O)O)ccc21` came in with a melting point of 172 to 176 °C. With `Cn1c(=O)c(C2=NNC(=O)C2=CNc2ncccn2)c(O)c2ccccc21` the figure was 279 °C. The figure for `COC(=O)C1=C(C(=O)OC)C2(COC(=O)C(C)NC(C)=O)c3ccccc3C1c1ccccc12` (stereo unspecified) is 180 °C. In turn, `O=[N+]([O-])c1ccc(Oc2ccc(N=C=S)cc2)cc1` came in with a melting point of 122 to 124 °C. With `Cc1ccc(C(c2ccc(C)o2)c2cc([N+](=O)[O-])ccc2O)o1` the figure was 143 °C. With `CCC(=O)OC1CCC2(C)C(=CCC3C2CCC2(C)C(C(C)CCCC(C)C)CCC32)C1` (stereo unspecified) the figure was 97 to 100 °C.
